≈ marks a conversion by molar mass, not a printed value.
Key:
Experiment in all cases: ≥ marks a high value that may be exact or a test limit, other limits are often not marked, values filed in µg/mL are converted to µM
Bacillus cereus = test system: Bacillus cereus
Staphylococcus aureus = test system: Staphylococcus aureus
Escherichia coli = test system: Escherichia coli
[1] = test system: Staphylococcus aureus ATCC 29213
[2] = test system: Candida albicans ATCC 10231
[3] = test system: Pseudomonas aeruginosa ATCC 27853
[4] = test system: Bacillus subtilis ATCC 6633
[5] = test system: Staphylococcus aureus ATCC 25923
[6] = test system: Klebsiella pneumoniae ATCC 700603
[7] = test system: Escherichia coli ATCC 25922
[8] = test system: Staphylococcus epidermidis ATCC 12228

Structure (SMILES)	MIC (Bacillus cereus) [µM]	MIC (Staphylococcus aureus) [µM]	MIC (Escherichia coli) [µM]	other results
CC(C)C[C@H](NC(=O)[C@H](CCCCN)NC(=O)[C@H](Cc1ccccc1)NC(=O)[C@@H](NC(=O)[C@@H](NC(=O)CNC(=O)[C@H](CC(C)C)NC(=O)[C@@H](N)Cc1ccccc1)C(C)C)C(C)C)C(=O)N[C@@H](C)C(=O)N[C@@H](CO)C(=O)N[C@@H](CCCCN)C(=O)N[C@H](C(=O)N[C@@H](Cc1ccccc1)C(=O)NCC(=O)N[C@@H](CCCCN)C(=O)N[C@H](C(=O)N[C@@H](Cc1ccccc1)C(=O)NCC(=O)N[C@@H](CCCCN)C(=O)N[C@H](C(=O)O)C(C)C)C(C)C)C(C)C [FLGVVFKLASKVFGKVFGKV]	3.69 (≈ 8 µg/mL)	3.69 (≈ 8 µg/mL)	29.5 (≈ 64 µg/mL)	
CC(C)C[C@H](NC(=O)[C@H](CCCCN)NC(=O)[C@@H]1CCCN1C(=O)[C@H](CC(C)C)NC(=O)[C@H](CC(C)C)NC(=O)[C@@H]1CCCN1C(=O)[C@H](CCCCN)NC(=O)[C@H](CC(C)C)NC(=O)[C@H](CCCCN)NC(=O)[C@@H]1CCCN1C(=O)[C@H](CC(C)C)NC(=O)[C@H](CC(C)C)NC(=O)[C@H](CC(C)C)NC(=O)[C@H](CCCCN)NC(=O)[C@H](CC(C)C)NC(=O)[C@H](CC(C)C)NC(=O)[C@H](CCCCN)NC(=O)[C@@H](N)Cc1ccc(O)cc1)C(N)=O [YKLLKLLLPKLKPLLPKL]				MIC [1]: 23.3 µM (≈ 49.7 µg/mL); MIC [2]: > 79.7 µM; MIC [3]: 19.9 µM (≈ 42.4 µg/mL)
CC(C)C[C@H](NC(=O)[C@@H](N)Cc1ccccc1)C(=O)NCC(=O)N[C@H](C(=O)N[C@H](C(=O)N[C@@H](Cc1ccccc1)C(=O)N[C@@H](CCCCN)C(=O)N[C@@H](CCCCN)C(=O)N[C@@H](C)C(=O)N[C@@H](CO)C(=O)N[C@@H](CCCCN)C(=O)N[C@H](C(=O)N[C@@H](Cc1ccccc1)C(=O)NCC(=O)N[C@@H](C)C(=O)N[C@H](C(=O)N[C@@H](Cc1ccccc1)C(=O)NCC(=O)N[C@@H](CCCCN)C(=O)N[C@H](C(=O)O)C(C)C)C(C)C)C(C)C)C(C)C)C(C)C [FLGVVFKKASKVFGAVFGKV]	≥ 60.1	> 120	30.1 (≈ 64 µg/mL)	
CSCC[C@H](NC(=O)[C@@H](N)Cc1ccccc1)C(=O)N[C@@H](CCCCN)C(=O)N[C@H](C(=O)N[C@@H](CC(C)C)C(=O)N[C@@H](C)C(=O)N[C@H](C(=O)N[C@@H](Cc1ccccc1)C(=O)NCC(=O)N[C@@H](CO)C(=O)N[C@H](C(=O)N[C@H](C(=O)N[C@H](C(=O)N[C@@H](CO)C(=O)N[C@@H](C)C(=O)N1CCC[C@H]1C(=O)N[C@@H](CCCCN)C(=O)N[C@@H](C)C(=O)N[C@@H](CO)C(=O)N[C@@H](CCCCN)C(=O)O)[C@@H](C)O)C(C)C)C(C)C)C(C)C)C(C)C [FMKVLAVFGSVVTSAPKASK]	≥ 124		> 124	
CC(C)C[C@H](NC(=O)[C@@H](N)Cc1ccccc1)C(=O)NCC(=O)N[C@@H](CCCCN)C(=O)N[C@H](C(=O)N[C@H](C(=O)N[C@@H](CCCCN)C(=O)NCC(=O)N[C@@H](C)C(=O)N[C@@H](CO)C(=O)N[C@@H](CCCCN)C(=O)N[C@H](C(=O)N[C@@H](Cc1ccccc1)C(=O)N1CCC[C@H]1C(=O)N[C@@H](C)C(=O)N[C@H](C(=O)N[C@@H](Cc1ccccc1)C(=O)NCC(=O)N[C@@H](CCCCN)C(=O)N[C@H](C(=O)O)C(C)C)C(C)C)C(C)C)C(C)C)C(C)C [FLGKVVKGASKVFPAVFGKV]	≥ 123	> 123	> 123	
CC[C@H](C)[C@H](NC(=O)[C@H](CCCCN)NC(=O)[C@@H](NC(=O)[C@@H](NC(=O)[C@H](Cc1ccc(O)cc1)NC(=O)[C@@H](NC(=O)[C@@H](N)CCCCN)C(C)C)C(C)C)C(C)C)C(=O)N[C@@H](C)C(=O)N[C@H](C(=O)N1CCC[C@H]1C(=O)N[C@@H](CS)C(=O)N[C@@H](Cc1ccccc1)C(=O)N1CCC[C@H]1C(=O)N[C@@H](CCCCN)C(=O)N[C@@H](CO)C(=O)N[C@@H](C)C(=O)N[C@@H](CCCN=C(N)N)C(=O)N[C@@H](CO)C(=O)N[C@H](C(=O)N[C@@H](CO)C(=O)O)C(C)C)C(C)C [KVYVVKIAVPCFPKSARSVS]	≥ 118		> 118	
CC[C@H](C)[C@H](NC(=O)[C@H](CCCCN)NC(=O)[C@H](Cc1ccccc1)NC(=O)[C@@H](NC(=O)[C@@H](NC(=O)[C@@H]1CCCN1C(=O)[C@@H](N)CC(C)C)C(C)C)C(C)C)C(=O)N[C@@H](C)C(=O)N[C@@H](CO)C(=O)N[C@@H](CCCCN)C(=O)N[C@H](C(=O)N[C@H](C(=O)N1CCC[C@H]1C(=O)N[C@@H](CO)C(=O)N[C@H](C(=O)N[C@H](C(=O)N[C@@H](CO)C(=O)N[C@@H](CCCCN)C(=O)N[C@H](C(=O)N[C@H](C(=O)O)[C@@H](C)O)[C@@H](C)CC)[C@@H](C)CC)C(C)C)C(C)C)C(C)C [LPVVFKIASKVVPSVISKIT]	≥ 120		> 120	
CC(=O)N[C@@H](CCCCN)C(=O)N[C@@H](Cc1ccccc1)C(=O)N[C@@H](CC(C)C)C(=O)N[C@@H](CCCCN)C(=O)N[C@@H](CC(C)C)C(=O)N[C@@H](CCCCN)C(=O)N[C@@H](Cc1c[nH]c2ccccc12)C(=O)N[C@@H](CC(C)C)C(=O)N[C@@H](CCCCN)C(=O)N[C@@H](CO)C(=O)N[C@@H](Cc1c[nH]c2ccccc12)C(=O)N[C@@H](CCCCN)C(=O)N[C@@H](CC(N)=O)C(=O)N[C@@H](Cc1ccccc1)C(=O)N[C@@H](CCCCN)C(N)=O [KFLKLKWLKSWKNFK]				MIC [4]: 6.4 µM (≈ 13 µg/mL); MIC [5]: 50 µM (≈ 102 µg/mL); MIC [6]: 25 µM (≈ 50.9 µg/mL); MIC [7]: 12.5 µM (≈ 25.4 µg/mL); MIC [8]: 12.5 µM (≈ 25.4 µg/mL); MIC [3]: 12.5 µM (≈ 25.4 µg/mL)
CC(C)C[C@H](NC(=O)[C@H](CCCN=C(N)N)NC(=O)[C@H](C)NC(=O)[C@@H](NC(=O)[C@H](CCCN=C(N)N)NC(=O)[C@H](CCCN=C(N)N)NC(=O)[C@H](CC(C)C)NC(=O)[C@@H](N)CC(C)C)C(C)C)C(=O)N[C@@H](CC(C)C)C(=O)N[C@@H](CCCCN)C(=O)N[C@@H](CCCN=C(N)N)C(=O)N[C@@H](Cc1ccccc1)C(=O)N[C@@H](C)C(=O)N[C@@H](CCCCN)C(=O)O [LLRRVARLLKRFAK]				MIC [4]: 4.6 µM (≈ 8 µg/mL); MIC [5]: 4.6 µM (≈ 8 µg/mL); MIC [7]: 1.15 µM (≈ 2 µg/mL); MIC [3]: 1.15 µM (≈ 2 µg/mL)

Second part, led by results:

MIC (Bacillus cereus) [µM]	MIC (Staphylococcus aureus) [µM]	MIC (Escherichia coli) [µM]	Structure (SMILES)	other results
14.9 (≈ 32 µg/mL)	29.9 (≈ 64 µg/mL)	29.9 (≈ 64 µg/mL)	CC(C)C[C@H](NC(=O)[C@H](CCCCN)NC(=O)[C@H](Cc1ccccc1)NC(=O)[C@@H](NC(=O)[C@H](CO)NC(=O)CNC(=O)[C@H](CC(C)C)NC(=O)[C@@H](N)Cc1ccccc1)C(C)C)C(=O)N[C@@H](C)C(=O)N[C@@H](CO)C(=O)N[C@@H](CCCCN)C(=O)N[C@H](C(=O)N[C@@H](Cc1ccccc1)C(=O)N1CCC[C@H]1C(=O)N[C@@H](C)C(=O)N[C@H](C(=O)N[C@@H](Cc1ccccc1)C(=O)NCC(=O)N[C@@H](CCCCN)C(=O)N[C@H](C(=O)O)C(C)C)C(C)C)C(C)C [FLGSVFKLASKVFPAVFGKV]	
≥ 120	> 120	> 120	CC(C)C[C@H](NC(=O)[C@@H](N)Cc1ccccc1)C(=O)NCC(=O)N[C@H](C(=O)N[C@H](C(=O)N[C@@H](Cc1ccccc1)C(=O)N[C@@H](CCCCN)C(=O)N[C@@H](CO)C(=O)N[C@@H](C)C(=O)N[C@@H](CO)C(=O)N[C@@H](CCCCN)C(=O)N[C@H](C(=O)N[C@@H](Cc1ccccc1)C(=O)N1CCC[C@H]1C(=O)N[C@@H](C)C(=O)N[C@H](C(=O)N[C@@H](Cc1ccccc1)C(=O)NCC(=O)N[C@@H](CCCCN)C(=O)N[C@H](C(=O)O)C(C)C)C(C)C)C(C)C)C(C)C)C(C)C [FLGVVFKSASKVFPAVFGKV]	
≥ 120		59.8 (≈ 128 µg/mL)	CC(C)C[C@H](NC(=O)[C@H](CCCCN)NC(=O)[C@H](Cc1ccccc1)NC(=O)[C@@H](NC(=O)[C@H](C)NC(=O)[C@@H]1CCCN1C(=O)[C@@H](N)CC(C)C)C(C)C)C(=O)N[C@@H](C)C(=O)N[C@@H](CO)C(=O)N[C@@H](CCCCN)C(=O)N[C@H](C(=O)N[C@@H](Cc1ccccc1)C(=O)N1CCC[C@H]1C(=O)N[C@@H](C)C(=O)N[C@H](C(=O)N[C@@H](Cc1ccc(O)cc1)C(=O)N[C@@H](CS)C(=O)N[C@@H](CCCCN)C(=O)N[C@@H](C)C(=O)N[C@@H](CO)C(=O)O)C(C)C)C(C)C [LPAVFKLASKVFPAVYCKAS]	
7.33 (≈ 16 µg/mL)	14.7 (≈ 32 µg/mL)	7.33 (≈ 16 µg/mL)	CC(C)C[C@H](NC(=O)[C@H](CCCCN)NC(=O)[C@H](Cc1ccccc1)NC(=O)[C@@H](NC(=O)[C@H](CCCCN)NC(=O)CNC(=O)[C@H](CC(C)C)NC(=O)[C@@H](N)Cc1ccccc1)C(C)C)C(=O)N[C@@H](C)C(=O)N[C@@H](CO)C(=O)N[C@@H](CCCCN)C(=O)N[C@H](C(=O)N[C@@H](Cc1ccccc1)C(=O)N1CCC[C@H]1C(=O)N[C@@H](C)C(=O)N[C@H](C(=O)N[C@@H](Cc1ccccc1)C(=O)NCC(=O)N[C@@H](CCCCN)C(=O)N[C@H](C(=O)O)C(C)C)C(C)C)C(C)C [FLGKVFKLASKVFPAVFGKV]	
≥ 119	> 119	119 (≈ 256 µg/mL)	CC(C)C[C@H](NC(=O)[C@@H](N)Cc1ccccc1)C(=O)NCC(=O)N[C@@H](CCCCN)C(=O)N[C@H](C(=O)N[C@@H](Cc1ccccc1)C(=O)N[C@@H](CCCCN)C(=O)N[C@@H](CCCCN)C(=O)N[C@@H](C)C(=O)N[C@@H](CO)C(=O)N[C@@H](CCCCN)C(=O)N[C@H](C(=O)N[C@H](C(=O)N1CCC[C@H]1C(=O)N[C@@H](C)C(=O)N[C@H](C(=O)N[C@@H](Cc1ccccc1)C(=O)NCC(=O)N[C@@H](CCCCN)C(=O)N[C@H](C(=O)O)C(C)C)C(C)C)C(C)C)C(C)C)C(C)C [FLGKVFKKASKVVPAVFGKV]	
